ChEMBL document CHEMBL6109084 (Eur J Med Chem, 2025)
The source made the active and inactive calls. The rule behind the calls is not given here.

Columns and labels:
[1] = Acute toxicity in C57BL/6J mouse assessed as effect on serum alanine transaminase level at 60 to 100 mg/kg, po measured after 24 hrs; type: organism-based; conditions: in vivo, dose 60-100 mg/kg
Oryctolagus cuniculus [2] = assay: Antithrombotic activity in FeCl3-induced carotid arterial thrombosis male New Zealand white rabbits model assessed as reduction in dry thrombus weight at 2 mg/kg, iv preincubated for 30 mins followed by FeCl3 application for 5 and measured after 45 mins relative to control; type: functional; set-up: scale not given: the % may be the effect or the level left; conditions: time 80 min, 1.333 h
Mus musculus [3] = assay: Antithrombotic activity in po dosed FeCl3-induced carotid arterial thrombosis C57BL/6J mouse model assessed as increase in peak velocity measured after 0.5 hrs; type: functional, organism-based; conditions: dose 5-30 mg/kg
Oryctolagus cuniculus [4] = assay: Antithrombotic activity in FeCl3-induced carotid arterial thrombosis male New Zealand white rabbits model assessed as reduction in wet thrombus weight at 2 mg/kg, iv preincubated for 30 mins followed by FeCl3 application for 5 mins and measured after 30 mins relative to control; type: functional; set-up: scale not given: the % may be the effect or the level left; conditions: time 65 min, 1.083 h
[5] = Acute toxicity in C57BL/6J mouse assessed as pathological changes in heart at 60 to 100 mg/kg, po administered as single dose for 14 days by H and E staining based analysis; type: organism-based; conditions: in vivo, 336 h, dose 60-100 mg/kg, time 14 day
Prothrombin = Prothrombin (Homo sapiens, UniProt P00734); assay: Inhibition of thrombin (unknown origin) using H-D-Phe-Pip-Arg-pNA.2HCl as substrate incubated for 30 mins followed by substrate addition and measured after 60 mins by microplate reader analysis
[6] = Metabolic stability in human liver microsome assessed as half life; type: ADME; conditions: liver microsomes
Plasma kallikrein = Plasma kallikrein (Homo sapiens, UniProt P03952); assay: Inhibition of PKal (unknown origin) using H-D-Pro-Phe-Arg-pNA.2HCl as substrate incubated for 30 mins followed by substrate addition and measured after 60 mins by microplate reader analysis
Coagulation factor XII = molecular target: T1, Coagulation factor XII (Homo sapiens, UniProt P00748); assay: Inhibition of FXIIa (unknown origin) using H-D-ProPhe-Arg-pNA.2HCl as substrate incubated for 30 mins followed by substrate addition and measured after 60 mins by microplate reader analysis
T1 sequence (P00748 whole entry): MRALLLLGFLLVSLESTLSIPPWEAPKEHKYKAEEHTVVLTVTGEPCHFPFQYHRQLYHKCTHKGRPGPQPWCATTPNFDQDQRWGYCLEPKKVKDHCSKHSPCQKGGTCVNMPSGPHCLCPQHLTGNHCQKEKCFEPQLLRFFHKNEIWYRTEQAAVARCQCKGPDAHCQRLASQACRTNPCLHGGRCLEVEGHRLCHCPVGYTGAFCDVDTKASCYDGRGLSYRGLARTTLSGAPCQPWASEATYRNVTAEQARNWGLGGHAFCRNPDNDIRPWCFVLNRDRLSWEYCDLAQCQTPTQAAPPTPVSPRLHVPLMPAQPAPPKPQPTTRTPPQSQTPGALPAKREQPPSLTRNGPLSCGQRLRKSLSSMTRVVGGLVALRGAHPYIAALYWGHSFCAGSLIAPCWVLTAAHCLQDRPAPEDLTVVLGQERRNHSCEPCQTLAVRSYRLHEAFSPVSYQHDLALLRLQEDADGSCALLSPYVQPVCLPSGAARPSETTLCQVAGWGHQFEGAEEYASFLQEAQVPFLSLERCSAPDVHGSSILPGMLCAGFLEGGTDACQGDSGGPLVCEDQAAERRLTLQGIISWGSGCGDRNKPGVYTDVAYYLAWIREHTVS

[7] = Cytotoxicity against human AC16 [Human hybrid] cells assessed as reduction in cell viability at 1 to 50 uM incubated for 24 hrs by MTT assay; type: toxicity, cell-based; conditions: dose 1-50 µM
[8] = Acute toxicity in C57BL/6J mouse assessed as effect on plasma ALP level at 60 to 100 mg/kg, po measured after 24 hrs; type: organism-based; conditions: in vivo, dose 60-100 mg/kg
[9] = Toxicity in male New Zealand white rabbit assessed as prolongation of bleeding time at 2 to 6 mg/kg, iv by ear bleeding assay; type: organism-based, Oryctolagus cuniculus; conditions: in vivo, dose 2-6 mg/kg
[10] = Selectivity index, ratio of IC50 for inhibition of FXa (unknown origin) using Z-D-Arg-Gly-Arg-pNA.2HCl as substrate to IC50 for inhibition of human FXIa using p-Glu-Pro-Arg-pNA.HCl as substrate
[11] = Acute toxicity in C57BL/6J mouse assessed as weight loss at 60 to 100 mg/kg, po administered as single dose for 14 days; type: organism-based; conditions: in vivo, 336 h, dose 60-100 mg/kg, time 14 day
[12] = Acute toxicity in C57BL/6J mouse assessed as pathological changes in lung at 60 to 100 mg/kg, po administered as single dose for 14 days by H and E staining based analysis; type: organism-based; conditions: in vivo, 336 h, dose 60-100 mg/kg, time 14 day
Mus musculus [13] = assay: Antithrombotic activity in po dosed FeCl3-induced carotid arterial thrombosis C57BL/6J mouse model assessed as increase in mean blood flow velocity measured after 0.5 hrs; type: functional, organism-based; conditions: dose 5-30 mg/kg
[14] = Acute toxicity in C57BL/6J mouse assessed as effect on lung weight at 60 to 100 mg/kg, po measured after 24 hrs; type: organism-based; conditions: in vivo, dose 60-100 mg/kg
Mus musculus [15] = assay: Antithrombotic activity in FeCl3-induced carotid arterial thrombosis C57BL/6J mouse model assessed as increase in peak velocity at 10 mg/kg, po measured after 2 to 4 hrs; type: functional, organism-based; conditions: time 2-4 hrs
Trypsin = Trypsin (Homo sapiens, UniProt P07477+P07478+P35030); assay: Inhibition of trypsin (unknown origin) using Bz-Ile-Glu(gamma-OR)-Gly-Arg-pNA.HCl as substrate incubated for 30 mins followed by substrate addition and measured after 60 mins by microplate reader analysis; type: protein assay
[16] = Acute toxicity in C57BL/6J mouse assessed as effect on liver weight at 60 to 100 mg/kg, po measured after 24 hrs; type: organism-based; conditions: in vivo, dose 60-100 mg/kg
Coagulation factor X = Coagulation factor X (Homo sapiens, UniProt P00742); assay: Inhibition of FXa (unknown origin) using Z-D-Arg-Gly-Arg-pNA.2HCl as substrate incubated for 30 mins followed by substrate addition and measured after 60 mins by microplate reader analysis
[17] = Toxicity in C57BL/6J mouse assessed as prolongation of bleeding time at 30 to 60 mg/kg, IG measured after 30 mins by tail bleeding assay; type: organism-based; conditions: in vivo, po, 0.5 h, dose 30-60 mg/kg
Plasma = assay: Anticoagulant activity in citrated human plasma assessed as prolongation of prothrombin time incubated for 3 mins by PT reagent based automated coagulometric analysis; type: functional, cell-free
[18] = Apparent permeability in MDCK-MDR1 cells; type: ADME, cell-based, Canis lupus familiaris; conditions: dog
[19] = Acute toxicity in C57BL/6J mouse assessed as effect on serum ALP level at 60 to 100 mg/kg, po administered as single dose for 14 days; type: organism-based; conditions: in vivo, 336 h, dose 60-100 mg/kg, time 14 day
Coagulation factor XI = Coagulation factor XI (Homo sapiens, UniProt P03951); assay: Inhibition of human FXIa using p-Glu-Pro-Arg-pNA.HCl as substrate incubated for 30 mins followed by substrate addition and measured after 60 mins by microplate reader analysis
Chain of Coagulation factor XI (P03951 19-387 limits assumed): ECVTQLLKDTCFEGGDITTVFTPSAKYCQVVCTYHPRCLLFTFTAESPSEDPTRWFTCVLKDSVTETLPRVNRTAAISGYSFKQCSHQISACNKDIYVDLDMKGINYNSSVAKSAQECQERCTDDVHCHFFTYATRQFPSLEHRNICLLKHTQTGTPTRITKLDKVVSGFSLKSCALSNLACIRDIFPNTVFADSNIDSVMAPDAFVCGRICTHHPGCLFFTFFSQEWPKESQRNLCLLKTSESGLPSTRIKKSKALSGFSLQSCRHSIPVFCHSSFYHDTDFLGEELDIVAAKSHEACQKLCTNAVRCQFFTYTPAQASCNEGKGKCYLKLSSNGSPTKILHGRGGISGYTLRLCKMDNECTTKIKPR
Chain of Coagulation factor XI (P03951 388-625 limits assumed): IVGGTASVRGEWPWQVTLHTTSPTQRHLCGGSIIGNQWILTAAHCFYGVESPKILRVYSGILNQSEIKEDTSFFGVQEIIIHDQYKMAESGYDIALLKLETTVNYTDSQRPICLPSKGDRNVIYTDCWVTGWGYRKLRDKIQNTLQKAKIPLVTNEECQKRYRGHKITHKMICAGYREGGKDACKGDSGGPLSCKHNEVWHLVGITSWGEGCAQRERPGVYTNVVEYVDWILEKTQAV

Chain of Coagulation factor X (P00742 41-179 limits assumed): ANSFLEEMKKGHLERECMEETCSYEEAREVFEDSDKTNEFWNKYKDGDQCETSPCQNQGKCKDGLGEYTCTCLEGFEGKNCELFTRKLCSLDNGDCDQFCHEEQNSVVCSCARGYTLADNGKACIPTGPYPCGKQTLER
Chain of Coagulation factor X (P00742 235-488 limits assumed): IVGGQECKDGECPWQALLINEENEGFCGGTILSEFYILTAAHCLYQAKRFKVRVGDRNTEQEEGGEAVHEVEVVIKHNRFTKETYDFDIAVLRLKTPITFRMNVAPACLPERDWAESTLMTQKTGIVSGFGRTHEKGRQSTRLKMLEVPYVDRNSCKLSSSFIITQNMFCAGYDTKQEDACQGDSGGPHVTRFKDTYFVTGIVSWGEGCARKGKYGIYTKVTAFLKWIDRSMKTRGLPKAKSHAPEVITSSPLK
Chain of Plasma kallikrein (P03952 20-390 limits assumed): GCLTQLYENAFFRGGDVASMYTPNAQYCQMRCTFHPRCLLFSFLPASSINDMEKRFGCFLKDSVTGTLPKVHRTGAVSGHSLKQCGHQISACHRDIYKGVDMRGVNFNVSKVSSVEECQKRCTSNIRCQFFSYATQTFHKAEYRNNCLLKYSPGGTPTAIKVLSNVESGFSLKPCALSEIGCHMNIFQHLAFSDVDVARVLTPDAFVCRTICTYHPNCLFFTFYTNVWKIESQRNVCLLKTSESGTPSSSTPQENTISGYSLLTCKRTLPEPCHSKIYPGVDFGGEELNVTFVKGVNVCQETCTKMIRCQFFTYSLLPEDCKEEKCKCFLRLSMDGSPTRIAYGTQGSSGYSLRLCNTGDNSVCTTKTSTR
Chain of Plasma kallikrein (P03952 391-638 limits assumed): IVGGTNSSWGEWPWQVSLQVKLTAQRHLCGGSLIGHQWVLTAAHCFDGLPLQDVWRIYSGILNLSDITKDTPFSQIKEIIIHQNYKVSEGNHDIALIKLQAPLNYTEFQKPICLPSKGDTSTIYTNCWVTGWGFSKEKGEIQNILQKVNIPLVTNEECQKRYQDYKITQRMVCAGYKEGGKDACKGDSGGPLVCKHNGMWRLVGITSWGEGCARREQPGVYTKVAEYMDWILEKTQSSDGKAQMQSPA

SMILES: COc1cn(Cc2cc(-c3ccc(N)nc3F)ccn2)c(=O)cc1-c1cc(Cl)ccc1-n1cnnn1
- Activity [1]: Non-toxic
- Activity (Oryctolagus cuniculus [2]): >50%
- Activity (Mus musculus [3]): Dose-dependent-effect
- Activity (Oryctolagus cuniculus [4]): >50%
- Activity [5]: Non-toxic
- IC50 (Prothrombin): > 1000 nM
- half-life [6]: > 3 h
- IC50 (Plasma kallikrein): 222 nM
- IC50 (Coagulation factor XII): > 1000 nM
- Activity [7]: Non-toxic
- Activity [8]: Non-toxic
- Activity [9]: Non-toxic
- Ratio IC50 [10]: > 1000
- Activity [11]: Non-toxic
- Activity [12]: Non-toxic
- Activity (Mus musculus [13]): Dose-dependent-effect
- Activity [14]: Non-toxic
- Activity (Mus musculus [15]): Active; Pronounced Increase Observed Compared To Compound F
- IC50 (Trypsin): > 1000 nM
- Activity [16]: Non-toxic
- IC50 (Coagulation factor X): > 1000 nM
- Activity [17]: Non-toxic
- Activity (Plasma): inactive
- Papp [18]: 0.5 ×10⁻⁶ cm/s
- Activity [19]: Non-toxic
- IC50 (Coagulation factor XI): 0.19 nM
